# Target: T1, Endothelin-1 receptor (Homo sapiens, UniProt P25101); also: in other assays of this panel Not Active means under 50% inhibition at 10 µM
# T1 sequence (P25101 whole entry): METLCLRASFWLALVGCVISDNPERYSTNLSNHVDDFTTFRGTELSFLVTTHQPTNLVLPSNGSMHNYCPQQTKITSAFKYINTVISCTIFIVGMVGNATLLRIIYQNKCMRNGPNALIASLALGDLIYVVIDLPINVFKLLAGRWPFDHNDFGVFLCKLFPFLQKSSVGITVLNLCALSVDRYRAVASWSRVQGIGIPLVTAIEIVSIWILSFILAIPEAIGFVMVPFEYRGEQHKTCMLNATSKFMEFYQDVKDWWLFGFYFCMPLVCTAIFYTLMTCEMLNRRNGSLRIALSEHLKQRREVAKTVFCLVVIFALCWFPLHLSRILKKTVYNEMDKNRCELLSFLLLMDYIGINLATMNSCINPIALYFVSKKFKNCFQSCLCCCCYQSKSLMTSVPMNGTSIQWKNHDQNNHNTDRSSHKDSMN
# Experiment: not given
# Format: cell membranes, Membrane
# Conditions: cho-k1
row,Compound,IC50
1,C[C@]12CC[C@@H]3c4ccc(OC(=O)c5ccccc5)cc4CC[C@H]3[C@@H]1CC[C@@H]2O [ESTRADIOL BENZOATE],Not Active
2,C[C@]12CC[C@@H]3c4ccc(O)cc4CC[C@H]3[C@@H]1CC[C@@H]2O [ESTRADIOL],Not Active
3,CC[C@@H](CO)NCCN[C@@H](CC)CO [ETHAMBUTOL],Not Active
4,CC1(C)O[C@@H]2C[C@H]3[C@@H]4C[C@H](F)C5=CC(=O)C=C[C@]5(C)[C@H]4[C@@H](O)C[C@]3(C)[C@]2(C(=O)CO)O1 [FLUNISOLIDE],Not Active
5,CC1(C)O[C@@H]2C[C@H]3[C@@H]4C[C@H](F)C5=CC(=O)C=C[C@]5(C)[C@@]4(F)[C@@H](O)C[C@]3(C)[C@]2(C(=O)CO)O1 [FLUOCINOLONE ACETONIDE],Not Active
6,CC1(C)O[C@@H]2C[C@H]3[C@@H]4C[C@H](F)C5=CC(=O)CC[C@]5(C)[C@H]4[C@@H](O)C[C@]3(C)[C@]2(C(=O)CO)O1 [FLURANDRENOLIDE],Not Active
7,CN(C)c1ccc(C(=C2C=CC(=[N+](C)C)C=C2)c2ccc(N(C)C)cc2)cc1.[Cl-] [GENTIAN VIOLET],Not Active
8,Cc1ccc(S(=O)(=O)NC(=O)NN2CC3CCCC3C2)cc1 (configuration not stated) [GLICLAZIDE],Not Active
9,NC(=O)NO [HYDROXYUREA],Not Active
10,CC(C)Cc1ccc(C(C)C(=O)O)cc1 (configuration not stated) [IBUPROFEN],Not Active

# Target: Histamine H2 receptor (Homo sapiens, UniProt P25021); also: in other assays of this panel Not Active means under 50% inhibition at 10 µM
# Sequence (P25021 whole entry): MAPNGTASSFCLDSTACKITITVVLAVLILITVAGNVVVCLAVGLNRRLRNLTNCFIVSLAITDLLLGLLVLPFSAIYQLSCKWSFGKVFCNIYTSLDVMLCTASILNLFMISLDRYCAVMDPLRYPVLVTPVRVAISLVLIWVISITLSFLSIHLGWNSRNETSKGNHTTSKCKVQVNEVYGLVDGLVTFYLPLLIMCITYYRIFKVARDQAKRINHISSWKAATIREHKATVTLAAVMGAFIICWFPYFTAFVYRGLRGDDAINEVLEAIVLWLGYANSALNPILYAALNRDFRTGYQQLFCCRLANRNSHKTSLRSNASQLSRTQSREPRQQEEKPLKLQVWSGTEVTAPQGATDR
# Experiment: not given
# Format: cell membranes, CHO-K1, Membrane
# Conditions: cho-k1
row,Compound,IC50
1,C[C@]12CC[C@@H]3c4ccc(OC(=O)c5ccccc5)cc4CC[C@H]3[C@@H]1CC[C@@H]2O [ESTRADIOL BENZOATE],Not Active
2,C[C@]12CC[C@@H]3c4ccc(O)cc4CC[C@H]3[C@@H]1CC[C@@H]2O [ESTRADIOL],Not Active
3,CC[C@@H](CO)NCCN[C@@H](CC)CO [ETHAMBUTOL],Not Active
4,CC1(C)O[C@@H]2C[C@H]3[C@@H]4C[C@H](F)C5=CC(=O)C=C[C@]5(C)[C@H]4[C@@H](O)C[C@]3(C)[C@]2(C(=O)CO)O1 [FLUNISOLIDE],Not Active
5,CC1(C)O[C@@H]2C[C@H]3[C@@H]4C[C@H](F)C5=CC(=O)C=C[C@]5(C)[C@@]4(F)[C@@H](O)C[C@]3(C)[C@]2(C(=O)CO)O1 [FLUOCINOLONE ACETONIDE],Not Active
6,CC1(C)O[C@@H]2C[C@H]3[C@@H]4C[C@H](F)C5=CC(=O)CC[C@]5(C)[C@H]4[C@@H](O)C[C@]3(C)[C@]2(C(=O)CO)O1 [FLURANDRENOLIDE],Not Active
7,Cc1ccc(S(=O)(=O)NC(=O)NN2CC3CCCC3C2)cc1 (configuration not stated) [GLICLAZIDE],Not Active
8,NC(=O)NO [HYDROXYUREA],Not Active
9,CC(C)Cc1ccc(C(C)C(=O)O)cc1 (configuration not stated) [IBUPROFEN],Not Active

# Same assay, conditions: read-out: IC50
row,Compound,IC50
1,CN(C)c1ccc(C(=C2C=CC(=[N+](C)C)C=C2)c2ccc(N(C)C)cc2)cc1.[Cl-] [GENTIAN VIOLET],1160 nM

# Same assay, conditions: read-out: Ki
row,Compound,Ki
1,CN(C)c1ccc(C(=C2C=CC(=[N+](C)C)C=C2)c2ccc(N(C)C)cc2)cc1.[Cl-] [GENTIAN VIOLET],1140 nM

# Test system: not listed separately
# Experiment: DRUGMATRIX: Imidazoline I2, Central radioligand binding (ligand: [3H] Idazoxan)
# Format: cell membranes, Rattus norvegicus, Wistar, Cerebral cortex, Membrane
# Conditions: Not Active = under 50% inhibition at 10 µM
Compound,IC50,Ki
C[C@]12CC[C@@H]3c4ccc(OC(=O)c5ccccc5)cc4CC[C@H]3[C@@H]1CC[C@@H]2O [ESTRADIOL BENZOATE],Not Active,Not Active
C[C@]12CC[C@@H]3c4ccc(O)cc4CC[C@H]3[C@@H]1CC[C@@H]2O [ESTRADIOL],Not Active,Not Active
CC[C@@H](CO)NCCN[C@@H](CC)CO [ETHAMBUTOL],Not Active,Not Active
CC1(C)O[C@@H]2C[C@H]3[C@@H]4C[C@H](F)C5=CC(=O)C=C[C@]5(C)[C@H]4[C@@H](O)C[C@]3(C)[C@]2(C(=O)CO)O1 [FLUNISOLIDE],Not Active,Not Active
CC1(C)O[C@@H]2C[C@H]3[C@@H]4C[C@H](F)C5=CC(=O)C=C[C@]5(C)[C@@]4(F)[C@@H](O)C[C@]3(C)[C@]2(C(=O)CO)O1 [FLUOCINOLONE ACETONIDE],Not Active,Not Active
CC1(C)O[C@@H]2C[C@H]3[C@@H]4C[C@H](F)C5=CC(=O)CC[C@]5(C)[C@H]4[C@@H](O)C[C@]3(C)[C@]2(C(=O)CO)O1 [FLURANDRENOLIDE],Not Active,Not Active
CN(C)c1ccc(C(=C2C=CC(=[N+](C)C)C=C2)c2ccc(N(C)C)cc2)cc1.[Cl-] [GENTIAN VIOLET],Not Active,Not Active
Cc1ccc(S(=O)(=O)NC(=O)NN2CC3CCCC3C2)cc1 (configuration not stated) [GLICLAZIDE],Not Active,Not Active
NC(=O)NO [HYDROXYUREA],Not Active,Not Active
CC(C)Cc1ccc(C(C)C(=O)O)cc1 (configuration not stated) [IBUPROFEN],Not Active,Not Active

# Target: T2, Cysteinyl leukotriene receptor 1 (Homo sapiens, UniProt Q9Y271); also: in other assays of this panel Not Active means under 50% inhibition at 10 µM
# T2 sequence (Q9Y271 whole entry): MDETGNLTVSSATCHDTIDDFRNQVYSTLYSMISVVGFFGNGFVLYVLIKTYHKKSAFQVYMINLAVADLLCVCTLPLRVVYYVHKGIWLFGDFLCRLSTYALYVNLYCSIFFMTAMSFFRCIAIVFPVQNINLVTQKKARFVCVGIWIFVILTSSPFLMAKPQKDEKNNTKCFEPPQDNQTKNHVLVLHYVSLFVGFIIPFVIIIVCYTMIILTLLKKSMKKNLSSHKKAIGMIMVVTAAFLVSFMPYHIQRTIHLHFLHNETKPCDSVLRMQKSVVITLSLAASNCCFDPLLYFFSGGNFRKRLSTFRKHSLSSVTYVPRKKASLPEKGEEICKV
# Experiment: not given
# Format: cell membranes, CHO-K1, Membrane
# Conditions: cho-k1
row,Compound,IC50
1,C[C@]12CC[C@@H]3c4ccc(OC(=O)c5ccccc5)cc4CC[C@H]3[C@@H]1CC[C@@H]2O [ESTRADIOL BENZOATE],Not Active
2,C[C@]12CC[C@@H]3c4ccc(O)cc4CC[C@H]3[C@@H]1CC[C@@H]2O [ESTRADIOL],Not Active
3,CC[C@@H](CO)NCCN[C@@H](CC)CO [ETHAMBUTOL],Not Active
4,CC1(C)O[C@@H]2C[C@H]3[C@@H]4C[C@H](F)C5=CC(=O)C=C[C@]5(C)[C@H]4[C@@H](O)C[C@]3(C)[C@]2(C(=O)CO)O1 [FLUNISOLIDE],Not Active
5,CC1(C)O[C@@H]2C[C@H]3[C@@H]4C[C@H](F)C5=CC(=O)C=C[C@]5(C)[C@@]4(F)[C@@H](O)C[C@]3(C)[C@]2(C(=O)CO)O1 [FLUOCINOLONE ACETONIDE],Not Active
6,CC1(C)O[C@@H]2C[C@H]3[C@@H]4C[C@H](F)C5=CC(=O)CC[C@]5(C)[C@H]4[C@@H](O)C[C@]3(C)[C@]2(C(=O)CO)O1 [FLURANDRENOLIDE],Not Active
7,CN(C)c1ccc(C(=C2C=CC(=[N+](C)C)C=C2)c2ccc(N(C)C)cc2)cc1.[Cl-] [GENTIAN VIOLET],Not Active
8,Cc1ccc(S(=O)(=O)NC(=O)NN2CC3CCCC3C2)cc1 (configuration not stated) [GLICLAZIDE],Not Active
9,NC(=O)NO [HYDROXYUREA],Not Active
10,CC(C)Cc1ccc(C(C)C(=O)O)cc1 (configuration not stated) [IBUPROFEN],Not Active

# Target: T3, Muscarinic acetylcholine receptor M4 (Homo sapiens, UniProt P08173); also: in other assays of this panel Not Active means under 50% inhibition at 10 µM
# T3 sequence (P08173 whole entry): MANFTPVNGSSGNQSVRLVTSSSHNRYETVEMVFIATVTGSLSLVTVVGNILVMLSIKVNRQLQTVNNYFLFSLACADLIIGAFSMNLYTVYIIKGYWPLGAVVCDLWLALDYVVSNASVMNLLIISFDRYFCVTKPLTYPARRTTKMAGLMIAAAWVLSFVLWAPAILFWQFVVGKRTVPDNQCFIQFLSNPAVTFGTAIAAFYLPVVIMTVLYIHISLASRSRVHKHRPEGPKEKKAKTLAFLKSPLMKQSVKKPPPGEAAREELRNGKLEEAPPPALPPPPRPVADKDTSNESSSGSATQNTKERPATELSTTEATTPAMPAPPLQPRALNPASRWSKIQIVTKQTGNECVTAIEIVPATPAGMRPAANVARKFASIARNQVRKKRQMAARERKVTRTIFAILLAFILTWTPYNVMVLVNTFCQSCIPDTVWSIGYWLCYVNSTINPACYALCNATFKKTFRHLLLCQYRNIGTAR
# Experiment: not given
# Format: cell membranes, CHO-K1, Membrane
# Conditions: cho-k1
row,Compound,IC50
1,C[C@]12CC[C@@H]3c4ccc(OC(=O)c5ccccc5)cc4CC[C@H]3[C@@H]1CC[C@@H]2O [ESTRADIOL BENZOATE],Not Active
2,C[C@]12CC[C@@H]3c4ccc(O)cc4CC[C@H]3[C@@H]1CC[C@@H]2O [ESTRADIOL],Not Active
3,CC[C@@H](CO)NCCN[C@@H](CC)CO [ETHAMBUTOL],Not Active
4,CC1(C)O[C@@H]2C[C@H]3[C@@H]4C[C@H](F)C5=CC(=O)C=C[C@]5(C)[C@H]4[C@@H](O)C[C@]3(C)[C@]2(C(=O)CO)O1 [FLUNISOLIDE],Not Active
5,CC1(C)O[C@@H]2C[C@H]3[C@@H]4C[C@H](F)C5=CC(=O)C=C[C@]5(C)[C@@]4(F)[C@@H](O)C[C@]3(C)[C@]2(C(=O)CO)O1 [FLUOCINOLONE ACETONIDE],Not Active
6,CC1(C)O[C@@H]2C[C@H]3[C@@H]4C[C@H](F)C5=CC(=O)CC[C@]5(C)[C@H]4[C@@H](O)C[C@]3(C)[C@]2(C(=O)CO)O1 [FLURANDRENOLIDE],Not Active
7,Cc1ccc(S(=O)(=O)NC(=O)NN2CC3CCCC3C2)cc1 (configuration not stated) [GLICLAZIDE],Not Active
8,NC(=O)NO [HYDROXYUREA],Not Active
9,CC(C)Cc1ccc(C(C)C(=O)O)cc1 (configuration not stated) [IBUPROFEN],Not Active

# Same assay, conditions: read-out: IC50
row,Compound,IC50
1,CN(C)c1ccc(C(=C2C=CC(=[N+](C)C)C=C2)c2ccc(N(C)C)cc2)cc1.[Cl-] [GENTIAN VIOLET],1010 nM

# Same assay, conditions: read-out: Ki
row,Compound,Ki
1,CN(C)c1ccc(C(=C2C=CC(=[N+](C)C)C=C2)c2ccc(N(C)C)cc2)cc1.[Cl-] [GENTIAN VIOLET],140 nM

# Target: Tyrosine-protein kinase Fyn (Homo sapiens, UniProt P06241)
# Sequence (P06241 whole entry): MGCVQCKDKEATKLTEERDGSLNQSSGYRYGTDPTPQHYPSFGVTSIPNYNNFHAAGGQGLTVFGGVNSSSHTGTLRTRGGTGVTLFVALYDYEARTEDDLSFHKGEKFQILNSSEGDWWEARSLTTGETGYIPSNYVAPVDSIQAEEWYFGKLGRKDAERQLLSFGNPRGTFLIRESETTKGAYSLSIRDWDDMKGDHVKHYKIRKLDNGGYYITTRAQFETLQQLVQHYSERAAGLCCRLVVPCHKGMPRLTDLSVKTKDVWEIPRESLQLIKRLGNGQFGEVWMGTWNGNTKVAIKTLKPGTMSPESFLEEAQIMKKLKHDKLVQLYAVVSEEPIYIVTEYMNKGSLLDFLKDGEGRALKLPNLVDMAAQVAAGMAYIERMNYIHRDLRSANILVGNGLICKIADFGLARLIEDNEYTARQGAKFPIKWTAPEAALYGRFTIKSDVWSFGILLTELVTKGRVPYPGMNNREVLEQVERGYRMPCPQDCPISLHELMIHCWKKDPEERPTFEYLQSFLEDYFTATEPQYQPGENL
# Experiment: biochemical
# Format: cell-based, Insect cells
# Conditions: insect cells
row,Compound,IC50
1,C[C@]12CC[C@@H]3c4ccc(O)cc4CC[C@H]3[C@@H]1CC[C@@H]2O [ESTRADIOL],Not Active
2,CC[C@@H](CO)NCCN[C@@H](CC)CO [ETHAMBUTOL],Not Active
3,CC1(C)O[C@@H]2C[C@H]3[C@@H]4C[C@H](F)C5=CC(=O)C=C[C@]5(C)[C@H]4[C@@H](O)C[C@]3(C)[C@]2(C(=O)CO)O1 [FLUNISOLIDE],Not Active
4,CC1(C)O[C@@H]2C[C@H]3[C@@H]4C[C@H](F)C5=CC(=O)C=C[C@]5(C)[C@@]4(F)[C@@H](O)C[C@]3(C)[C@]2(C(=O)CO)O1 [FLUOCINOLONE ACETONIDE],Not Active
5,CC1(C)O[C@@H]2C[C@H]3[C@@H]4C[C@H](F)C5=CC(=O)CC[C@]5(C)[C@H]4[C@@H](O)C[C@]3(C)[C@]2(C(=O)CO)O1 [FLURANDRENOLIDE],Not Active
6,Cc1ccc(S(=O)(=O)NC(=O)NN2CC3CCCC3C2)cc1 (configuration not stated) [GLICLAZIDE],Not Active
7,NC(=O)NO [HYDROXYUREA],Not Active
8,CC(C)Cc1ccc(C(C)C(=O)O)cc1 (configuration not stated) [IBUPROFEN],Not Active

# Same assay, conditions: read-out: IC50
row,Compound,IC50
1,C[C@]12CC[C@@H]3c4ccc(OC(=O)c5ccccc5)cc4CC[C@H]3[C@@H]1CC[C@@H]2O [ESTRADIOL BENZOATE],23000 nM
2,CN(C)c1ccc(C(=C2C=CC(=[N+](C)C)C=C2)c2ccc(N(C)C)cc2)cc1.[Cl-] [GENTIAN VIOLET],2150 nM
